Reference: patent US10947239B2, “[1,2,4]triazolo[1,5-a]pyrimidin-7-yl compound” (Janssen Pharmaceutica NV, priority 2015, dated 2021)

Experiments:
Marshall Beagle dogs = test: Single dose PK/PD PDE2i dog study; format: in vivo
Text: For these studies male and female Marshall Beagle dogs (1-6 y) were used: 2 males and 2 females per treatment group. Cerebrospinal fluid (CSF) was sampled from the lateral ventricle via a needle guide cannula in instrumented conscious animals.
Baseline CSF and blood samples were taken 2 to 5 days before dosing. The dogs are fasted overnight and the next morning dosed on an empty stomach (orally by gavage). At predetermined time points after dosing blood and/or CSF was collected for the measurement of compound levels and cGMP. Analysis of cGMP was done by LCMS/MS: 25 μl CSF was diluted with 125 μl artificial CSF (STIL (20 ng/ml)), centrifugated and 25 μl was injected. The systems used were: a Shimadzu SIL-30 UPLC-system (Hypercarb (50 mm×1 mm (3 μm)) column, basic (10 mM ammonium carbonate) aqueous-acetonitrile gradient (5% to 98% in 5.5 minutes) at a flow-rate of 250 μl/min) and an API Sciex 5500 system equiped with an ESI source (selective MRM transition (m/z 346.1→152.1 (75 msec dwelltime)). The results of this study are summarized in FIG. 7. After a single dose of compound 1 the following observations were made: slight to moderate tremors in 3/8 animals at 0.5 mg/kg; sedation and/or tremors in 6 out of 7 animals at 1 mg/kg (one animal was not dosed due to limited stock of the compound). […] Limited individual data in the vehicle group of PDE2 H-2 (n=2 at 1, 4 and 8 h) due to analytical errors.

[1] = system: dentate gyrus of anesthetized adult Sprague Dawley; test: LTP / synaptic plasticity in dentate gyrus of anesthetized rats; format: in vivo, rat
[2] = molecular target: Rat recombinant PDE10A (rPDE10A2) (Rattus norvegicus (Rat), UniProt Q9QYJ6); test: In vitro assay PDE10A (SPA, 3H-cAMP); format: biochemical; settings: −log IC50 expressed in mol/L
Experimental: Rat recombinant PDE10A (rPDE10A2) was expressed in Sf9) cells using a recombinant rPDE10A baculovirus construct. Cells were harvested after 48 h of infection and the rPDE10A protein was purified by metal chelate chromatography on Ni-sepharose 6FF. Tested compounds were dissolved and diluted in 100% DMSO to a concentration 100 fold of the final concentration in the assay. Compound dilutions (0.4 μl) were added in 384 well plates to 20 μl of incubation buffer (50 mM Tris pH 7.8, 8.3 mM MgCl2, 1.7 mM EGTA). 10 μl of rPDE10A enzyme in incubation buffer was added and the reaction was started by addition of 10 μl substrate to a final concentration of 60 nM cAMP and 0.008 μCi ^3H-cAMP. The reaction was incubated for 60 minutes at room temperature. After incubation, the reaction was stopped with 20 μl of stop solution consisting of 17.8 mg/ml PDE SPA (scintillation proximity assay) beads. After sedimentation of the beads during 30 minutes the radioactivity was measured in a Perkin Elmer Topcount scintillation counter and results were expressed as cpm. For blanc values the enzyme was omitted from the reaction and replaced by incubation buffer. Control values were obtained by addition of a final concentration of 1% DMSO instead of compound. […]

[3] = molecular target: Human recombinant PDE2A (hPDE2A) (Homo sapiens (Human), UniProt O00408); test: In vitro assay PDE2A (SPA, 3H-cGMP); format: biochemical
Experimental: Human recombinant PDE2A (hPDE2A) was expressed in Sf9 cells using a recombinant […] baculovirus construct. […] Tested compounds were dissolved and diluted in 100% DMSO to a concentration 100 fold of the final concentration in the assay. Compound dilutions (0.4 μl) were added in 384 well plates to 20 μl of incubation buffer (50 mM Tris pH 7.8, 8.3 mM MgCl2, 1.7 mM EGTA). […] of hPDE2A enzyme in incubation buffer was added and the reaction was started by addition of 10 μl substrate to a final concentration of 10 μM cGMP and 0.01 μCi ^3H-cGMP. The reaction was incubated for 45 minutes at room temperature. […] After sedimentation of the beads during 30 minutes the radioactivity was measured in a Perkin Elmer Topcount scintillation counter and results were expressed as cpm. For blanc values the enzyme was omitted from the reaction and replaced by incubation buffer. Control values were obtained by addition of a final concentration of 1% DMSO instead of compound.

[4] = molecular target: Human recombinant PDE3A (hPDE3A) (Homo sapiens, UniProt Q14432); test: In vitro assay PDE3A (SPA, 3H-cAMP); format: biochemical; settings: −log IC50 expressed in mol/L; method describes hPDE3A
Experimental: Human recombinant PDE3A (hPDE3A) was supplied as a partially purified insect cell lysate by Scottish Biomedical, it was cloned from human brain and expressed in Sf9 cells. Tested compounds were dissolved and diluted in 100% DMSO to a concentration 100 fold of the final concentration in the assay. Compound dilutions (0.4 μl) were added in 384 well plates to 20 μl of incubation buffer (50 mM Tris pH 7.8, 8.3 mM MgCl2, 1.7 mM EGTA). 10 μl of hPDE3A enzyme in incubation buffer was added and the reaction was started by addition of 10 μl substrate to a final concentration of 0.4 μM cAMP and 2.4 μCi/ml [^3H]-cAMP. The reaction was incubated for 60 min at room temperature. After incubation, the reaction was stopped with 20 μl of stop solution consisting of 17.8 mg/ml PDE SPA (scintillation proximity assay) beads supplemented with 200 mM ZnCl2. After sedimentation of the beads during 30 min the radioactivity was measured in a Perkin Elmer Topcount scintillation counter and results were expressed as cpm. For blanc values the enzyme was omitted from the reaction and replaced by incubation buffer. Control values were obtained by addition of a final concentration of 1% DMSO instead of compound. […]

[5] = 40 mg/kg SC, 90-120 min post-tetanization, relative to baseline 100%

Human recombinant PDE2A (hPDE2A), sequence (O00408 whole entry): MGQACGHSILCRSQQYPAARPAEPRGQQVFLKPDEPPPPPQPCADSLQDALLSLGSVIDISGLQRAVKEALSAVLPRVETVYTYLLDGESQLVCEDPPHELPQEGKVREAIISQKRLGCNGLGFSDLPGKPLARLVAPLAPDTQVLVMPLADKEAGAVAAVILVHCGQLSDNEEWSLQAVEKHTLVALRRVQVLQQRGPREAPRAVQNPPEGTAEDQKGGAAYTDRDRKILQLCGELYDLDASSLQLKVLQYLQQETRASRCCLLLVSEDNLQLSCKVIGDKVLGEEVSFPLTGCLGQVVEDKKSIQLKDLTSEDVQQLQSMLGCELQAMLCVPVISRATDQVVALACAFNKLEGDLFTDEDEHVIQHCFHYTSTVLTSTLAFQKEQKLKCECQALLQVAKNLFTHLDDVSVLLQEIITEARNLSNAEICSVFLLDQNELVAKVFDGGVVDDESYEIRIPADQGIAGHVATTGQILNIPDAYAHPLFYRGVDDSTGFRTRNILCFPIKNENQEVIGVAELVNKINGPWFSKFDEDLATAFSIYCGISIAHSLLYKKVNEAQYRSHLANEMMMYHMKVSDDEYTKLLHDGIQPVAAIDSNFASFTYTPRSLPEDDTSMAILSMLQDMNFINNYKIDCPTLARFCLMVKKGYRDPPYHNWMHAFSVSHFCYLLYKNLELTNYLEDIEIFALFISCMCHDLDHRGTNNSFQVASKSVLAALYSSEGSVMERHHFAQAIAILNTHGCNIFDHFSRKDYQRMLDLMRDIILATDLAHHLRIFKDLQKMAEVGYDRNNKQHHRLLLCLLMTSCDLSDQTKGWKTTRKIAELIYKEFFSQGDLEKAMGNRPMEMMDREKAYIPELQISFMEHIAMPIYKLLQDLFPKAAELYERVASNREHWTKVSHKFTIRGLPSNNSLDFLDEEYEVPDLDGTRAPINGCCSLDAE
Rat recombinant PDE10A (rPDE10A2), sequence (Q9QYJ6 whole entry): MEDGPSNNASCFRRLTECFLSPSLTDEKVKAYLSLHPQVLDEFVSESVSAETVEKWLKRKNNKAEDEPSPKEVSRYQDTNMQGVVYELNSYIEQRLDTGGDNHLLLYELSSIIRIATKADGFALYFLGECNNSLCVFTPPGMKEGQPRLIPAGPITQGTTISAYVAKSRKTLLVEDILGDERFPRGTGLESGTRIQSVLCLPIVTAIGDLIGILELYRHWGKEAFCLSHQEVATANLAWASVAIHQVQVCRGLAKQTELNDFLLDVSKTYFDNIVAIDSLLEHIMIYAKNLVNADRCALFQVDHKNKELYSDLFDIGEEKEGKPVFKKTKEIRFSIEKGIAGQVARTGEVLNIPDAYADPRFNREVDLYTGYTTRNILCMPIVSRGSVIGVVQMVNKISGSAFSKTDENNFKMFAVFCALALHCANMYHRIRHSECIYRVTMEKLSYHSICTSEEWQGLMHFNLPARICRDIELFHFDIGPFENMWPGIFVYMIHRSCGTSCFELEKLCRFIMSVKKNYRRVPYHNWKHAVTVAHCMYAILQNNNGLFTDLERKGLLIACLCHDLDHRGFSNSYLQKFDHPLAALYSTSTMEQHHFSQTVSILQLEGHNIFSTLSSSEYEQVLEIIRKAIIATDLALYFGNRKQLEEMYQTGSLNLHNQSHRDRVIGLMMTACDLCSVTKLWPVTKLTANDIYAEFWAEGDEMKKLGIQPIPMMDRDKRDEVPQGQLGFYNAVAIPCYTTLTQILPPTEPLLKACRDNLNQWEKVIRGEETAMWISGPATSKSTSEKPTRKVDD
Human recombinant PDE3A (hPDE3A), sequence (Q14432 whole entry, looked up): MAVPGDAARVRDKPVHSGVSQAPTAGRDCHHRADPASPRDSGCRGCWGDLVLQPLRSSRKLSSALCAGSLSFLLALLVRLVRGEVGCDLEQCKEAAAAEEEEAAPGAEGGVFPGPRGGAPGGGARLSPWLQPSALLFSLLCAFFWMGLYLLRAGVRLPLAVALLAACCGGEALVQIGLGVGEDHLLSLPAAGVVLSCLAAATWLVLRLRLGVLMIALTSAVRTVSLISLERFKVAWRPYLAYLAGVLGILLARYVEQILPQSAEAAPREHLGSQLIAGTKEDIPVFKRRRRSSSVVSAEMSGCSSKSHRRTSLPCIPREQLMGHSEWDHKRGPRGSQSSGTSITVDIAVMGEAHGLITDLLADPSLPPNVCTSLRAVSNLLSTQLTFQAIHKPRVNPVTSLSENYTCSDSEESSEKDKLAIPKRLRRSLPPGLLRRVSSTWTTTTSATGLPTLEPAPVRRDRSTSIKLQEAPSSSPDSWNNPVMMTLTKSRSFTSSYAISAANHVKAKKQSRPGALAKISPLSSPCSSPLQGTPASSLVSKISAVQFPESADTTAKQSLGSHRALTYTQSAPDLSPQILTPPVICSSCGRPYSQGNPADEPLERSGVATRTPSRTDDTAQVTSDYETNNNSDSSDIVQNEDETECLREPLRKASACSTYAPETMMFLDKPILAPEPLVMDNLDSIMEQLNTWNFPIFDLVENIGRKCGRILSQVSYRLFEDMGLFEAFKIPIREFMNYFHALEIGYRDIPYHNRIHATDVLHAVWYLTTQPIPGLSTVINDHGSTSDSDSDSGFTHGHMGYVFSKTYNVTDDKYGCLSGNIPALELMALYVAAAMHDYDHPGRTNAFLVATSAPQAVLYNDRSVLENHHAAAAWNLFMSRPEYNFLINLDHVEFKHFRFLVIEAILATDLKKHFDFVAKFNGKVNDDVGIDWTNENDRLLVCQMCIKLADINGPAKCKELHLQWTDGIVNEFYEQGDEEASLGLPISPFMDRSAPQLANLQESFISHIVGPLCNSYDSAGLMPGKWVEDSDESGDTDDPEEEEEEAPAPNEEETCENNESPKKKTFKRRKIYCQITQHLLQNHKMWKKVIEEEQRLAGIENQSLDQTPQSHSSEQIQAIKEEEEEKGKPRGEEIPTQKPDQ

`Cc1cc(C(=O)N2CC[C@@H](C)[C@H](c3cc(C(F)F)nc4ncnn34)C2)cc(C)n1` [Compound 1] was tested. Which “Plasma pharmacokinetics dose linearity” value (Marshall Beagle dogs; single oral dose) did it give?
Its value is “non-dose linearity”.

And the “slight to moderate tremors” value (Marshall Beagle dogs; single oral dose 0.5 mg/kg)?
The value was 3/8.

And the sedation and/or tremors (Marshall Beagle dogs; single oral dose 1 mg/kg)?
Its sedation and/or tremors is 6 out of 7.

And the “cGMP in the CSF” value (Marshall Beagle dogs; single oral dose, CSF from lateral ventricle)?
The value was “dose related increase”.

What about the PSA slopes ([1]; 40 mg/kg SC, 0-30 min after tetanization, relative to baseline 100%) of the same compound?
The PSA slopes was 164±13%.

What about the PSA amplitude [1, 5] of the same compound?
Its PSA amplitude is 179±20%.

What about the fEPSP slope [1, 5] of the same compound?
Its fEPSP slope is 137±24%.

And the “duration of enhanced synaptic potentiation” value ([1]; 40 mg/kg SC, LTP induction paradigm)?
The value was > 2 h.

And the Basal synaptic transmission ([1]; baseline pre-tetanus, versus vehicle-treated control)?
The Basal synaptic transmission was “not affected”.

And the LTP in vivo ([1]; overall conclusion)?
The LTP in vivo was “facilitates LTP in vivo”.

What about the “pIC50 PDE10A2” value [2] of the same compound?
The value was 7.06.

What about the IC50 ([3]; hPDE2A, 10 μM cGMP) of the same compound?
Its IC50 is 0.95 nM.

And the “pIC50 (PDE2A)” value ([3]; −log IC50 expressed in mol/L)?
The value was 9.07.

What about the “pIC50 PDE3B” value [4] of the same compound?
Its value is 5.21.
